Reference: patent publication US4764509A, “Pharmaceutical compositions containing di-gold phosphine” (SmithKline Beckman Corporation, priority 1987, dated 1988)
Values joined by “and” are separate entries in the source; they are usually repeats but may differ in a detail not shown here. Identical values can stand only once.

Experiments:
[1] = maximally tolerated dose in mice, ip qDx5 regimen (P388 experiment); format: in vivo, mouse (B62DF female); settings: B62DF female mice
Protocol: 10^6 P388 leukemia cells are inoculated ip in B6D2F1 mice. Twenty-four hours later, if the tumor inoculum proves to be free of bacterial contamination (as determined by 24 hours incubation in thioglycollate broth), animals are randomized into groups of 6 and housed in shoebox cages. The compound to be evaluated is dissolved in a minimal volume of either N,N-dimethylacetamide (DMA) or 95% ethanol (depending upon solubility). An equal volume of saline is added; if the drug comes out of solution an equal volume of polyethoxylated castor oil is added and then saline qs to a concentration such that the desired dose is delivered in 0.5 ml. The final concentration of DMA, ethanol and polyethoxylated castor oil is 10 percent. Dilutions for lower doses are made with saline so there is a decreasing proportion of organic solvents in the vehicle with decreasing dosage These vehicles provide soluble formulations (or suspensions). Formulations are prepared immediately prior to injection. The compound is administered ip on Days 1 through 5 (i.e. treatment is initiated 24 hrs after tumor inoculation). Each experiment includes three groups of 6 animals as untreated controls and animals treated with a positive control, cisplatin, at two dose levels. […] Animals are monitored daily for mortality and experiments are terminated after 45 days. […]

P388 leukemia = test: in vivo ip P388 lymphocytic leukemia mouse model (increase in lifespan); design: species or system mouse (B6D2F1); settings: ip Days 1 through 5; figures separated by slashes are from separate experiments; ≥25 percent ILS considered active
From the text: P388 lymphocytic leukemia is currently the most widely used animal tumor model for screening for antitumor agents and for detailed evaluation of active compounds. This tumor system is widely accepted as an antitumor agent screening tool because it is sensitive to virtually all of the clinically active antineoplastic agents; quantitative and reproducible; amenable for large-scale screening; and predictive for activity in other animal tumor models.
10^6 P388 leukemia cells are inoculated ip in B6D2F1 mice. Twenty-four hours later, if the tumor inoculum proves to be free of bacterial contamination (as determined by 24 hours incubation in thioglycollate broth), animals are randomized into groups of 6 and housed in shoebox cages. The compound to be evaluated is dissolved in a minimal volume of either N,N-dimethylacetamide (DMA) or 95% ethanol (depending upon solubility). An equal volume of saline is added; if the drug comes out of solution an equal volume of polyethoxylated castor oil is added and then saline qs to a concentration such that the desired dose is delivered in 0.5 ml. The final concentration of DMA, ethanol and polyethoxylated castor oil is 10 percent. […] Animals are monitored daily for mortality and experiments are terminated after 45 days. […]

[2] = Struck et al. 1966; cited from earlier work
[3] = maximally tolerated dose in mice, ip qD x 10 regimen (B16 experiment); format: in vivo, mouse (B6D2F1); settings: B6D2F1 mice, ip qD × 10 regimen
Protocol: (§1) In this system, groups of eight B6D2F1 mice are inoculated ip with 0.5 ml of a 10% (w:v) brei of B16 melanoma prepared from pooled sc tumors excised at 14-21 days from […] donor mice. Daily treatment is begun 24 hours after tumor implantation and is continued daily for ten (10) days. The route of drug administration is ip. The mice are monitored daily for survival for sixty (60) days. Antitumor activity is assessed by prolongation of median survival time. An ILS of ≥25% indicates activity in this tumor model.
^(b) maximally tolerated dose for B6D2F1 mice on a ip qD ×

B16 melanoma = test: in vivo ip B16 melanoma assay (increase in lifespan); design: species or system mouse (B6D2F1); settings: ip daily for ten (10) days; ILS of ≥25% indicates activity
Protocol: as §1

Row | Compound | MTD (maximally tolerated dose) [1] [mg/kg] | ILS (max): maximum increase in lifespan, mice bearing ip P388 leukemia (P388 leukemia) | cytotoxic activity (in words) [2] | MTD (maximally tolerated dose) [3] [mg/kg] | ILS: maximum increase in lifespan, mice bearing ip B16 melanoma (B16 melanoma) [%]
1 | Dichlorobis[1,2-bis(diethylphosphino)ethane]digold [Compound 2] | 16 | 29% | – | – | –
2 | c1ccc(P(CCP(c2ccccc2)c2ccccc2)c2ccccc2)cc1 [1,2-bis(diphenylphosphino)ethane] | – | – | cytotoxic activity | – | –
3 | Dichlorobis[1,2-bis(diphenylphosphino)ethane]digold [Compound 1] | 8 | 81% and 91% and 55% | – | 4 | 35
